Data published in paper PMC7839768 (Chemistry (Weinheim an Der Bergstrasse, Germany), 2020).

Columns and labels:
hGal-3 = hGal-3 (Homo sapiens, UniProt P17931); assay: ITC; type: binding
hGal-1 = hGal-1 (Homo sapiens, UniProt P09382); assay: ITC; type: binding
Chain of hGal-1 (P09382 2-135): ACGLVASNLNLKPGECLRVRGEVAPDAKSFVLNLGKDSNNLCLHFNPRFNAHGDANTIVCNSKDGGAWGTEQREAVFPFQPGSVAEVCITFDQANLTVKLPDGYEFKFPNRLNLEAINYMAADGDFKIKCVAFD

Chain of hGal-3 (P17931 2-250): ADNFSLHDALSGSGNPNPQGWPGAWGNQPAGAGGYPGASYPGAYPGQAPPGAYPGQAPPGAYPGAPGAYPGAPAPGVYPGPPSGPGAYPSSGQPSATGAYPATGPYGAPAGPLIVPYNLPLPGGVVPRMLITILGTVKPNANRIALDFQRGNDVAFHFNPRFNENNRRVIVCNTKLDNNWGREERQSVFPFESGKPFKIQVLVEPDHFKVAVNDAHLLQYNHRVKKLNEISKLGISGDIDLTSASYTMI

Kd (hGal-1) | SMILES | Kd (hGal-3)
– | OC[C@H]1O[C@@H]([Se][Se][C@@H]2O[C@H](CO)[C@H](O)[C@H](O)[C@H]2O)[C@H](O)[C@@H](O)[C@H]1O [DSeDG] | 2800 ± 180 µM
94.7 ± 2.2 µM | CC(=O)N[C@H]1[C@H](O[C@H]2[C@@H](O)[C@@H](CO)O[C@@H](O[C@H]3[C@H](O)[C@@H](NC(C)=O)[C@H](OCCN=[N+]=[N-])O[C@@H]3CO)[C@@H]2O)O[C@H](CO)[C@@H](O[C@@H]2O[C@H](CO)[C@H](O)[C@H](O)[C@H]2O)[C@@H]1O [compound 1, 2‐Azidoethyl (β‐D‐galactopyranosyl)‐(1→4)‐(2‐acetamido‐2‐deoxy‐β‐D‐glucopyranosyl)‐(1→3)‐(β‐D‐galactopyranosyl)‐(1→4)‐2‐acetamido‐2‐deoxy‐β‐D‐glucopyranoside] | 5.6 ± 0.1 µM
175 ± 3.2 µM | CC(=O)N[C@H]1[C@H](O[C@H]2[C@@H](O)[C@@H](CO)O[C@@H](O[C@H]3[C@H](O)[C@@H](O)[C@H](OCCCN)O[C@@H]3CO)[C@@H]2O)O[C@H](CO)[C@@H](O)[C@@H]1O[C@@H]1O[C@H](CO)[C@H](O)[C@H](O)[C@H]1O [compound 2, 3‐Aminopropyl (β‐D‐galactopyranosyl)‐(1→3)‐(2‐acetamido‐2‐deoxy‐β‐D‐glucopyranosyl)‐(1→3)‐(β‐D‐galactopyranosyl)‐(1→4)‐β‐D‐glucopyranoside] | 28.1 ± 0.5 µM

SMILES | Kd (hGal-1) | Kd (hGal-3)
OC[C@H]1O[C@@H]([Se][C@@H]2O[C@H](CO)[C@H](O)[C@H](O)[C@H]2O)[C@H](O)[C@@H](O)[C@H]1O [SeDG] | 108 ± 1.4 µM | 93.1 ± 2.6 µM
